Source: US8314234B2, “Bicyclic pyrimidine kinase inhibitors” (Janssen Pharmaceutica N.V., priority 2006, dated 2012)

What was measured:
CDK2 = target: T1, CDK2 (Homo sapiens, UniProt P24941); assay: CDK-2 screening assay; assay type: biochemical
T1 construct: purchased Upstate Biotech, Lake Placid, N.Y
Experimental: (§1) 70 μL of the kinase reaction mixture was dispensed into the well of a streptavidin coated FlashPlate™ (Cat. #SMP103, NEN, Boston, Mass.).
(§2) Test compound stock in 100% DMSO (1 μL) was added to the wells resulting in a final concentration of 1% DMSO in the reaction with a 100 μL final reaction volume. Each enzyme was diluted in 50 mM Tris-HCl pH=8.0, 0.1% BSA and 30 μL was added to each well to initiate the reaction. The reaction was incubated for one hour at 30° C. At the end of the 1 hr incubation, the reaction was terminated by aspirating the mixture from the plate and washing the wells twice with PBS containing 100 mM EDTA. The biotinylated peptide substrate became immobilized on the Flashplate and the incorporation of ^33P-γ-ATP was measured by reading the plate on a scintillation counter. Inhibition of the enzymatic activity was measured by observing a reduced amount of ^33P-γ-ATP incorporated into the immobilized peptide.
The CDK2 enzyme in complex with cyclin A is commercially available (Upstate Biotech, Lake Placid, N.Y.).
(§3) A maximum and minimum signal for the assay was determined on each plate. The percent inhibition of a test compound was calculated according to the formula: […]
(§4) The term “ND” means “not determined.”

CDK1 = target: T2, CDK1 (Homo sapiens, UniProt P06493); assay: CDK-1 screening assay; assay type: biochemical
T2 construct: purchased New England Biolabs, Beverly, Mass; 6020; host or cells: insect cells
T2 sequence (P06493 whole entry): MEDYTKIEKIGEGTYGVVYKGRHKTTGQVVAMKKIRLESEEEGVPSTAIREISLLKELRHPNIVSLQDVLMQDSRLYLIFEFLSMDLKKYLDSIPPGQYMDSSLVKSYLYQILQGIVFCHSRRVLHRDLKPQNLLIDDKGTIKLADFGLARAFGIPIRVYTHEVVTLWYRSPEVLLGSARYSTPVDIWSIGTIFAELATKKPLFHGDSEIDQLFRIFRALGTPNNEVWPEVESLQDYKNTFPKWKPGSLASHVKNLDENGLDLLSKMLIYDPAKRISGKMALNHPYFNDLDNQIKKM
T2 sequence (P14635 whole entry partner): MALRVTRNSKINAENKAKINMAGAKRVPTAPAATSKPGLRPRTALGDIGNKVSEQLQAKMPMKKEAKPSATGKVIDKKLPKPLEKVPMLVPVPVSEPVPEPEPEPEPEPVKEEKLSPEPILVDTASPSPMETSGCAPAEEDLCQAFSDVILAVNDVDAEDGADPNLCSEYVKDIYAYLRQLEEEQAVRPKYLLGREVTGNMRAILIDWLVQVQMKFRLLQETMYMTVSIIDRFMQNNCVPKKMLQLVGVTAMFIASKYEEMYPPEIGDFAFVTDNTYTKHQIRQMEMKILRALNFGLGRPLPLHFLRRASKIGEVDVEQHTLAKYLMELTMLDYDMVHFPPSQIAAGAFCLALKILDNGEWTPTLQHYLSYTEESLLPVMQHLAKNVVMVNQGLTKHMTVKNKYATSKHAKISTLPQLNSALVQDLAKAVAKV
Experimental: as §1, §2, §3, §4

VEGFR2 = VEGFR2 (Rattus norvegicus, UniProt O08775); assay: VEGFR2 screening assay; assay type: biochemical
Chain of VEGFR2 (O08775 786-1343): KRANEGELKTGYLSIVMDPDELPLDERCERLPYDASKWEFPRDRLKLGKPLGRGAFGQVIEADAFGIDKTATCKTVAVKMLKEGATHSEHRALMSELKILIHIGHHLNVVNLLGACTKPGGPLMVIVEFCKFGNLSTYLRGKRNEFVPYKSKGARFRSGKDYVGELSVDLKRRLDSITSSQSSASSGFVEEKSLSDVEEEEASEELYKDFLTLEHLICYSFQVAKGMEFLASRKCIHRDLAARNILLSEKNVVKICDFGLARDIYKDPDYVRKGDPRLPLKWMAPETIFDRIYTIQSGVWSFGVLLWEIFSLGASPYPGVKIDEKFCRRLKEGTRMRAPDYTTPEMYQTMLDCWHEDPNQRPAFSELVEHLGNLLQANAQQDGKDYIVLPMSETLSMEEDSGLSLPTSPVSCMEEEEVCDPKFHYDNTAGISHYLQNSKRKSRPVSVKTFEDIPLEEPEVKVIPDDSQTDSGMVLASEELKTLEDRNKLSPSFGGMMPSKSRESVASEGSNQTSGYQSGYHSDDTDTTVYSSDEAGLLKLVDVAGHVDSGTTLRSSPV
Experimental: A kinase reaction mixture was prepared containing 50 mM Tris-HCl pH=8, 10 mM MgCl2, 0.1 mM […], 1 mM DTT, 10 μM ATP, 0.025 μM biotinylated histone-H1 peptide substrate and 0.2 μCuries per well ^33P-γ-ATP (2000-3000 Ci/mmol). 70 μL of the kinase reaction mixture was dispensed into the well of a streptavidin coated FlashPlate™ (Cat. #SMP103, NEN, Boston, Mass.).
as §2
The VEGF-R2 enzyme is a fusion protein containing a polyhistidine tag at the N terminus followed by amino acids 786 to 1343 of the rat VEGF-R2 kinase domain (Accession number U93306). The assay used 150 ng of the N-terminal biotinylated peptide biotin-[…]-amide SEQ ID NO: 2) (VEGF-R2) per well.
as §3
For a series of test concentrations, the IC50 was derived by graphing percent inhibition against the log of the concentrations tested for a given compound with results shown in Table 2. For those compounds without an IC50, the inhibition values in percent are shown at a test concentration of 2 μM. The term “ND” means “not determined.”

A375 malignant melanoma = assay: Cell Proliferation Inhibition Assay (14C-thymidine incorporation), A375; assay type: cell-based; settings: Homo sapiens, A-375
Excerpt: (§5) The ability of a test compound to inhibit unregulated cell proliferation may be determined by measuring incorporation of ^14C-labelled thymidine into newly synthesized DNA within cell lines derived from carcinomas originating from several tissues. Accordingly, the anti-proliferative effect of a compound on cells with a variety of phenotypes may be determined.
(§6) Carcinoma cell lines include those such as HeLa cervical adenocarcinoma (American Type Culture Collection (ATCC), Virginia, Cat. #CCL-2), A375 malignant melanoma (ATCC CRL-1619), SK-OV-3 ovarian adenocarcinoma (ATCC HTB-77), HCT-116 colon carcinoma (CCL-247), PC-3 prostate adenocarcinoma (ATCC CRL-1435), and MDA-MB-231 (Xenogen Corp.)
(§7) The carcinoma cells are trypsinized and counted. The cells (3000-8000 count) are added to each well of a 96-well CytoStar tissue culture treated scintillating microplate (Amersham #RPNQ0160) in complete medium (100 μL) and the plate is then incubated in complete medium for 24 hrs at 37° C. in an inert atmosphere containing 5% CO2. Test compound (1 μL) in 100% DMSO is added to the plate test-wells with DMSO only added to control-wells. The plate is incubated in complete medium for a second 24 hr period at 37° C. in an atmosphere containing 5% CO2.
(§8) An aliquot of a solution of Methyl ^14C-thymidine (56 mC/mmol) (NEN #NEC568 or Amersham #CFA532) and complete medium (20 uL to provide 0.2 μCi/well) is then added to each well and the plate is incubated for a third 24 hr period at 37° C. in an atmosphere containing 5% CO2. The plate contents are then discarded, the plate is washed twice with PBS (200 μL) and then PBS (200 μL) is added to each well. The plate is sealed and the degree of methyl ^14C-thymidine incorporation is quantified on a Packard Top Count.

[1] = tested on: HeLa cervical adenocarcinoma; assay: Cell Proliferation Inhibition Assay (14C-thymidine incorporation), HeLa; assay type: cell-based; settings: Homo sapiens
Excerpt: as §5, §6, §7, §8

HCT-116 colon carcinoma = assay: Cell Proliferation Inhibition Assay (14C-thymidine incorporation), HCT-116; assay type: cell-based; settings: Homo sapiens
Excerpt: as §5, §6, §7, §8

EGFR = target: T3, EGFR (Homo sapiens, UniProt P00533); assay: EGFR Kinase Assay; assay type: biochemical
T3 construct: intracellular portion of EGFR started at nucleotide 2189 (corresponding to amino acid 667) and ended at the termination codon; made in house; host or cells: Sf9 insect cells (baculovirus)
Excerpt: The EGFR kinase used was a fusion of Glutathione-S-Transferase (GST) and a PCR amplified intracellular portion of EGFR (NM_005228). The intracellular portion of EGFR started at nucleotide 2189 (corresponding to amino acid 667) and ended at the termination codon. The portion was PCR amplified with primers that added the lambda attB sequences to each end, recombined into an entry vector, then into a GST destination vector (as described in Gateway Technologies Manual by Invitrogen Corporation, Carlsbad, Calif.).
The destination vector was recombined in the DH10BAC strain of bacteria to produce a bacmid. The bacmid was transfected into Sf9 cells and the supernatant containing the baculovirus was collected. The GSTEGFR protein was purified using large cultures of Sf9 cells infected with stock virus. After an appropriate period of time, the cells were collected and lysed. The GSTEGFR was then purified from the lysate on Glutathione-Sepharose columns (as described by Amersham Biosciences, Buckinghamshire, United Kingdom).
The EGFR substrate was prepared by biotinylating polyGluTyr (128 mg) (Sigma, St. Louis, Mo.) in a 1×PBS buffer incubated together with a 12-fold molar excess of Sulfo-NHS-LC-Biotin on ice for at least 2 hrs. The free biotin was separated from the biotinylated polyGluTyr on a gel filtration column.
A mixture of a 10× kinase buffer (500 mM Tris at pH 8.0, 100 mM Magnesium Chloride and 1 mM Sodium Vanadate), DTT (1 mM final from 500 mM stock), ATP (5 μM final from 10 mM stock), biotinylated polyGluTyr (10 μg/μL stock), γ-^33P ATP (10 μCi/μL stock) and water was added to each well (90 μL/well) of a Streptavidin Flashplate (Perkin Elmer, Wellesley, Mass.).
Test compound in 100% DMSO (2 μL) was added to the appropriate wells. Diluted GSTEGFR (1:300 dilution in 50 mM Tris at pH 8.0 and 0.1% bovine serum albumin) (10 μL) was added to the wells to initiate the reactions.
The plates were incubated at 30° C. for 1 hr with shaking. The reacted contents were removed and the plates were sequentially washed three times with a 1×PBS stop buffer (300 μL without Magnesium and Calcium) and 100 mM EDTA. After the final wash, the same stop buffer (200 μL) was added to the wells. The plates were then sealed and read on the TopCount scintillation counter.
Test compounds were assayed in triplicate at 16 concentrations at half-log dilutions starting at 200 uM. A maximum and minimum signal for the assay was determined on each plate. The percent inhibition of a test compound was calculated according to the formula
For a series of test concentrations, the IC50 was derived by graphing percent inhibition against the log of the concentrations tested for a given compound. The percent inhibition results are shown in Table 1 at a test concentration of 2 μM. For those compounds with an IC50, the IC50 value is shown in parentheses.

Row | IC50 (CDK2) [µM] | IC50 (CDK1) [µM] | IC50 (VEGFR2) [µM] | IC50 (A375 malignant melanoma) [µM] | IC50 [1] [µM] | IC50 (HCT-116 colon carcinoma) [µM] | inhibition at 2 µM (EGFR; test concentration of 2 μM) [%] | IC50 (EGFR; read-out: EGFR IC50 (value in parentheses)) [µM] | Molecule | EGFR Inhibition (%) (EGFR; test concentration of 2 μM)
1 | > 100 | > 100 | > 100 |  |  |  |  |  | c1cc(N2CCNCC2)ccc1Nc1nc(OCC2CCCCC2)c2cn[nH]c2n1 [Cpd 24, (4-cyclohexylmethoxy-1H-pyrazolo[3,4-d]pyrimidin-6-yl)-(4-piperazin-1-yl-phenyl)-amine] | 
2 | 3.29 | 12 | 75 | 100 | 100 | 15 |  |  | CC(C)C(CO)Nc1nc(Nc2ccc(S(=O)(=O)NCCO)cc2)nc2[nH]ncc12 (centres unmarked) [Cpd 14, N-(2-hydroxy-ethyl)-4-[4-(1-hydroxymethyl-2-methyl-propylamino)-1H-pyrazolo[3,4-d]pyrimidin-6-ylamino]-benzenesulfonamide] | 
3 |  | 0.268 | 2.32 | 8.6 | 4.6 | 5 |  |  | O=S(=O)(NCCO)c1ccc(Nc2nc(OCC3CCCCC3)c3cn[nH]c3n2)cc1 [Cpd 26, 4-(4-cyclohexylmethoxy-1H-pyrazolo[3,4-d]pyrimidin-6-ylamino)-N-(2-hydroxy-ethyl)-benzenesulfonamide] | 
4 | 0.18 | 1 | 1 | 100 | 100 | 15 |  |  | O=S(=O)(NCCO)c1ccc(Nc2nc(Nc3ccc4[nH]ncc4c3)c3cnoc3n2)cc1 [Cpd 15, N-(2-hydroxy-ethyl)-4-[4-(1H-indazol-5-ylamino)-isoxazolo[5,4-d]pyrimidin-6-ylamino]-benzenesulfonamide] | 
5 | > 10 | > 100 | > 10 |  |  |  |  |  | c1ccc(Nc2nc(OCC3CCCCC3)c3cn[nH]c3n2)cc1 [Cpd 25, (4-cyclohexylmethoxy-1H-pyrazolo[3,4-d]pyrimidin-6-yl)-phenyl-amine] | 

The next lines start with the molecule.

Row | Molecule | IC50 (CDK2) [µM] | IC50 (CDK1) [µM] | IC50 (VEGFR2) [µM] | IC50 (A375 malignant melanoma) [µM] | IC50 [1] [µM] | IC50 (HCT-116 colon carcinoma) [µM] | inhibition at 2 µM (EGFR; test concentration of 2 μM) [%] | IC50 (EGFR; read-out: EGFR IC50 (value in parentheses)) [µM] | EGFR Inhibition (%) (EGFR; test concentration of 2 μM)
6 | NS(=O)(=O)c1ccc(Nc2nc(NCc3ccccc3)c3cn[nH]c3n2)cc1 [Cpd 2, 4-(4-benzylamino-1H-pyrazolo[3,4-d]pyrimidin-6-ylamino)-benzenesulfonamide] | 1.6 | 7.16 | 20 |  |  |  |  |  | 
7 | O=S(=O)(NCCO)c1ccc(Nc2nc(Nc3ccc4[nH]ncc4c3)c3cn[nH]c3n2)cc1 [Cpd 11, N-(2-hydroxy-ethyl)-4-[4-(1H-indazol-5-ylamino)-1H-pyrazolo[3,4-d]pyrimidin-6-ylamino]-benzenesulfonamide] | 0.139 | 0.102 | 1 | 100 | 100 | 100 |  |  | 
8 | NS(=O)(=O)c1ccc(Nc2nc(Nc3ccccc3)nc3[nH]ncc23)cc1 [Cpd 6, 4-(6-phenylamino-1H-pyrazolo[3,4-d]pyrimidin-4-ylamino)-benzenesulfonamide] | 1.11 | 2.34 | 4.28 |  |  |  | 40 |  | 
9 | O=S(=O)(NCCN1CCOCC1)c1ccc(Nc2nc(OCC3CCCCC3)c3cn[nH]c3n2)cc1 [Cpd 27, 4-(4-cyclohexylmethoxy-1H-pyrazolo[3,4-d]pyrimidin-6-ylamino)-N-(2-morpholin-4-yl-ethyl)-benzenesulfonamide] |  | 0.83 | 4.47 | 7.5 | 19.4 | 11.2 |  |  | 
10 | NS(=O)(=O)c1cccc(Nc2nc(Nc3cccc(S(N)(=O)=O)c3)c3cn[nH]c3n2)c1 [Cpd 22, N^4,N^6-bis-[3-(amino-sulfonyl)-phenyl]-1H-pyrazolo[3,4-d]pyrimidine-4,6-diamine] |  | 0.475 | 1 | 100 | 100 | 100 | 66.7 | 0.2 | 
11 | NS(=O)(=O)c1ccc(Nc2nc(OCC3CCCCC3)c3cn[nH]c3n2)cc1 [Cpd 23, 4-(4-cyclohexylmethoxy-1H-pyrazolo[3,4-d]pyrimidin-6-ylamino)-benzenesulfonamide] |  |  | > 10 | 11 | 18.3 | 16.6 |  |  | 
12 | c1nc2ccc(Nc3nc(Nc4ccc5ncsc5c4)c4cn[nH]c4n3)cc2s1 [Cpd 16, N^4,N^6-bis-benzothiazol-6-yl-1H-pyrazolo[3,4-d]pyrimidine-4,6-diamine] | 1 | 5 | 0.989 | 8.2 | 13.3 | 8.6 |  |  | 
13 | 4-[6-(1H-indazol-5-ylamino)-1H-pyrazolo[3,4-d]pyrimidin-4-ylamino]-benzenesulfonamide [Cpd 4] | 0.15 | 0.527 | 1.15 |  |  |  |  |  | 65
14 | NS(=O)(=O)c1ccc(Nc2nc(Nc3ccc(S(N)(=O)=O)cc3)c3cn[nH]c3n2)cc1 [Cpd 1, N^4,N^6-bis-[4-(amino-sulfonyl)-phenyl]-1H-pyrazolo[3,4-d]pyrimidine-4,6-diamine] | 0.021 | 0.132 | 5 | 100 | 100 | 4.9 |  |  | 
